Results reported in article PMC5627017 (Frontiers in Pharmacology, 2017).
Like-named read-outs stand apart in the source and are kept apart here.

Columns and labels:
H1R [1] = test system: H1R; set-up: method as in Slack et al., 2011a,b; conditions: ex vivo organ bath, antagonists continuously removed; ref Slack et al., 2011a,b; cited from earlier work
[2] = biological target: T1, H1R endogenously expressed in HeLa cells (Homo sapiens, UniProt P35367); test: Receptor recovery of calcium mobilization after antagonist washout; assay type: cell-based; set-up: HeLa cells, endogenously expressing the H1R at low, but physiological relevant densities, were used in both assays; endogenous in cells; host or cells: HeLa cells (in-house cell biobank); conditions: for RecT (receptor recovery time), calcium mobilization: reciprocal of krec
T1 sequence (P35367 whole entry): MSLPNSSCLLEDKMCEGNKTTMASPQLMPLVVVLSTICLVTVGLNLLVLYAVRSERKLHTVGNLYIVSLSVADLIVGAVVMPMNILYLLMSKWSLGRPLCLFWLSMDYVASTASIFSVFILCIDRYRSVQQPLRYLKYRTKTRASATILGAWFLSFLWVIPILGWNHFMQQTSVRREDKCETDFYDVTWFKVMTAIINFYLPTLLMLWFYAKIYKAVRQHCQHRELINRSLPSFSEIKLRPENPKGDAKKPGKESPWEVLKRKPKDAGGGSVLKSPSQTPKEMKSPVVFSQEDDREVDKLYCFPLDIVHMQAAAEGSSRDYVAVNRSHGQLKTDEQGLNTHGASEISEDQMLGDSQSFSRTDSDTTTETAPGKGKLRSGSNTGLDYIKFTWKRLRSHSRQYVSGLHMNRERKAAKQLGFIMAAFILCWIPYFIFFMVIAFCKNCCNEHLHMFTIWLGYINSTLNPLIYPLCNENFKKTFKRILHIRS
Method: HeLa cells were cultured as described above. HeLa cells were lifted from a subconfluent dish by incubating with a 1x trypsin solution for 4 min. Cells were then seeded in a black, clear bottom 96-well plate, with 2 × 10^4 cells per well. Subsequently, the cells were pre-incubated overnight in culture medium with a range of antagonist concentrations or without antagonist, as is specified per assay format below. After 18–20 h, assay buffer was prepared by supplementing HBSS with 20 mM HEPES pH 7.4 and 2.5 mM probenecid (from a 2.5 × 10^-1 M stock in water). Dye solution was then prepared by dissolving one aliquot of Fluo4 NW in 22 mL assay buffer. Medium was aspirated and Fluo4 NW dye solution was supplemented to the cells and incubated for an hour at 37°C in the presence of the respective antagonist. After labeling the cells with Fluo4 NW, readout of the calcium response was measured per individual well in series.
One 96-well plate with HeLa cells was separated into four sections and each section was pre-incubated with a respective 10 times Ki concentrations of antihistamine or vehicle condition. […] Following Fluo4 NW loading in the presence of the respective concentration antihistamine, cells were washed and reconstituted in 100 μL assay buffer that was pre-heated to 37°C (t0). […] The first measurement was started approximately 2 min after washing the cells and subsequent wells were measured with 75 s intervals. […] The data was analyzed using non-linear regression with a one-phase association model in GraphPad Prism according to Eq. 3.
(3) Y=Y0+(Ymax−Y0)×(1−e^(−krec×t))
For all other antihistamines a free fit of Ymax was allowed, reported in the results as the steady-state recovery (%). Receptor recovery times (RecT) were calculated for each experiment as the reciprocal of the krec. Reported krec and RecT values are the mean ± SEM of ≥3 experiments.

[3] = biological target: T1, H1R endogenously expressed in HeLa cells
Method: (1) normalizedfluorescentresponse=FHA−Fb/Ft−Fb
The AUC was quantified using GraphPad Prism (GraphPad Software, San Diego, CA, United States). Settings were as such that peaks were ignored when there was less than 1% difference between min and max fluorescence and/or peaks shaped by fewer than 10 data points. The resulting dose-response curves were analyzed by non-linear regression according to Eq. 2.

H1R [4] = test system: H1R; set-up: method as in Gillard et al., 2002; Schoepke et al., 2013; conditions: ref Gillard et al., 2002; Schoepke et al., 2013; cited from earlier work
[5] = biological target: T1, H1R endogenously expressed in HeLa cells; test: DMR receptor recovery after washout; conditions: 10x Ki pre-incubation, 1 h and 2 h after washout
Method: For the measurement of DMR in HeLa cells upon treatment by agonists and antagonists, a resonant waveguide grating (RWG) biosensor method was used.
HeLa cells were grown in DMEM High Glucose medium with L-Glutamine supplemented with 10% FBS and 1x penicillin/streptomycin [all reagents were obtained from Capricorn Scientific GmbH (Ebsdorfergrund, Germany)] and incubated in humidified atmosphere at 37°C and 5% CO2 in air.
As vehicle control wells with medium/DMSO treated cells were included. The LFC plate was incubated overnight in a humidified atmosphere at 37°C and 5% CO2 in air. On the next day assay buffer [HBSS (Sigma–Aldrich), 20 mM HEPES (Sigma–Aldrich), 0.5% (v/v) DMSO] was adapted to room temperature before use. 22–24 h after cell seeding antagonists were removed from the LFC plate and wells were washed four times with label-free assay buffer (25 μL/ well). The total assay volume after the washing step was 30 μL/ well.
In all experiments a DMSO concentration of 0.5% (v/v) was not exceeded. The LFC plate was placed in an EnSpire® Multimode Plate Reader equipped with Corning® Epic® Label-free technology.
Data was analyzed individually for each quadrant of the 384 well LFC plate using GraphPad Prism.
Depicted values represent mean and standard deviation of two independent experiments.

[6] = biological target: T1, H1R endogenously expressed in HeLa cells; remark: listed apart in the source
[7] = 10x Ki pre-incubation, washout, 37°C, mean ± SEM of ≥3

In the case of `O=c1c2ccccc2c(Cc2ccc(Cl)cc2)nn1C[C@H]1CCCN1CCCCc1ccc(OCCCN2CCCCCC2)cc1` [GSK1004723], the “inhibition of histamine-induced, H1R mediated bronchial contraction (in words)” value (H1R [1]) is given as “retained a long inhibition”.

In the case of `O=C(O)COCCN1CCN([C@H](c2ccccc2)c2ccc(Cl)cc2)CC1` [Levocetirizine, levocetirizine], the “krec (recovery rate of histamine induced calcium mobilization)” value ([2]; 10x Ki overnight pre-incubation, washout, 10^-5 M histamine, 37°C, mean ± SEM of ≥3) is reported as 0.014 ± 0.003 min⁻¹, the “recovery of histamine induced calcium mobilization after washout (in words)” value ([2]; 10x Ki pre-incubation, 10^-5 M histamine) is reported as “even more delayed” and the “Steady-state recovery (%)” value ([2]; fitted Ymax of histamine-induced calcium response after washout, relative to vehicle pre-treated cells) is reported as 104 ± 10%. The “RecT (receptor recovery time), calcium mobilization” value [2, 7] was 87 ± 20 min, the “antagonism of histamine-induced calcium mobilization after overnight pre-incubation (in words)” value ([3]; HeLa cells, increasing antagonist and histamine concentrations) was “full insurmountable inhibition” and the “in vivo efficacy after depletion of free concentrations in the blood (in words)” value (H1R [4]) was “hysteresis of efficacy”. The “insurmountable antagonism of histamine DMR response after washout (in words)” value (from here on “insurmountable antagonism”) [5] was “pronounced” and the “suppression of maximal histamine DMR response after washout (in words)” value [5] was “suppressed the Emax up to 2 h”.

With `CN(C)CC/C=C1/c2ccccc2COc2ccc(CC(=O)O)cc21` [Olopatadine, olopatadine] the “krec (recovery rate of histamine induced calcium mobilization)” value [2] was 0.006 ± 0.001 min⁻¹, the “recovery of histamine induced calcium mobilization after washout (in words)” value [2] was “even more delayed” and the “RecT (receptor recovery time), calcium mobilization” value [2, 7] was 226 ± 60 min. For the same compound, the “antagonism of histamine-induced calcium mobilization after overnight pre-incubation (in words)” value [3] was “full insurmountable inhibition”, the “insurmountable antagonism” value [5] was “pronounced” and the “suppression of maximal histamine DMR response after washout (in words)” value [5] was “suppressed the Emax up to 2 h”.

With `Cc1ccc(/C(=C\CN2CCCC2)c2ccccn2)cc1` [Triprolidine, triprolidine] the “insurmountable antagonism” value [5] was “showed insurmountable antagonism, but this was the same at 1 and 2 h”.

In the case of `CN1CCCC(n2nc(Cc3ccc(Cl)cc3)c3ccccc3c2=O)CC1` (centres unmarked) [azelastine], the “inhibition of histamine-induced, H1R mediated bronchial contraction (in words)” value (H1R [1]) is listed as “retained a long inhibition”.

For `NCCc1c[nH]cn1` [histamine], the “Hill slope of histamine, calcium mobilization” value [3] was 1.1 ± 0.1, the “Hill slope of histamine, DMR (AUC)” value ([6]; AUC) was 0.88 and the “Hill slope of histamine, DMR (peak response)” value ([6]; peak response) was 0.92.
